How the values were obtained:
[1] = target: T1, BACE cleavage of the P5-P5′ substrate (Homo sapiens, UniProt P56817); experiment: ASBI assay b): P5-P5′ fluorescence substrate cleavage assay; type: biochemical; conditions: flavonoids at 100 uM
T1 construct: purchased Sigma-Aldrich (kit); R&D (HTS description) CS0010; 931-AS-050
Description: As illustrated in the Examples, in one embodiment, an MBP-C125 APP695 wt fusion protein can be used as one of the substrates. The second substrate can be the commercially available P5-P5′ fluorescence substrate. Each of these substrates is incubated with recombinant BACE (R&D (cat#931-AS-050) in, for example, a 96 well plate format. For the MBP-C125 substrate the C-99 product from the BACE cleavage can be measured using an AlphaLisa assay as a readout. For the P5-5′ substrate the […] upon BACE cleavage can be used as the readout. An ASBI would inhibit the BACE cleavage of the MBP-C125 substrate while not being inhibitory of the fluorescence substrate. […]
A primary high-throughput screening (HTS) assay was set up for identification of ASBIs using a dual-substrate testing paradigm (FIGS. 3A & 3B). The previously reported (Sinha et al. (1999) Nature, 402: 537-540) BACE substrate the MBP-C125 APP695 wt fusion protein consisting of maltose binding protein fused to the carboxyterminal 125 amino acids of wild type APP, was used as the primary substrate; and the commercially available P5-P5′ fluorescence substrate, derived from the P5-P5′ residues of the BACE cleavage site of APP, was used as the secondary substrate. […]

[2] = target: acetylcholine esterase (AChE) (Homo sapiens, UniProt P22303); conditions: Guo et al. (2010); cited from earlier work
Sequence of acetylcholine esterase (AChE) (P22303 32-614): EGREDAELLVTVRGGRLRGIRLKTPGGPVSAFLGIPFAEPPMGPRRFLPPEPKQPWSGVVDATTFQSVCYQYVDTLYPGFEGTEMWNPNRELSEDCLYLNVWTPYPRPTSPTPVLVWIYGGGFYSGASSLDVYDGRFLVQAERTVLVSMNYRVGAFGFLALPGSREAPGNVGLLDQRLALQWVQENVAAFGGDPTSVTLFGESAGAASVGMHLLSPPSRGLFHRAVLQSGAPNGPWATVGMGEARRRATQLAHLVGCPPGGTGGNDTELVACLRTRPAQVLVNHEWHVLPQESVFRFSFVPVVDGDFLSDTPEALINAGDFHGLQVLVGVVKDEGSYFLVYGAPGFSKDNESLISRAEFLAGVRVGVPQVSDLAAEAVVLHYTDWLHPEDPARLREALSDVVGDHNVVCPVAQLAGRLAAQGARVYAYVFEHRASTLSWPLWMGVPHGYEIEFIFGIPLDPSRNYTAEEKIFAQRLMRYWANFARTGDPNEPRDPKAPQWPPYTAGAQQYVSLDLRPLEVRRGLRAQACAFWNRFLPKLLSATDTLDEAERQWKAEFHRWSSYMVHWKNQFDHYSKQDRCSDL

[3] = tested on: BACE1 cleavage of neuregulin1 in HEK293 cells; experiment: Neuregulin1 shedding assay (SEAP-NRG1-β1); type: cell-based, human; conditions: 10 μM, HEK293 cells co-expressing BACE1
Description: (§1) Chinese Hamster Ovary (CHO) cells stably over-expressing human APP were treated with 10 μM Galangin or DMSO for 24 hr, then the cell lysates and conditioned media were collected. The levels of full length APP and β-CTF in the cell lysates and the levels of sAPPα in the conditioned media were detected by western blot. […] BACE1-dependent cleavage of SEAP-NRG1-β1 was evaluated by SEAP assays with supernatants of control human embryonic kidney 293 (HEK293) cells (SEAP-NRG1-β1) or HEK293 cells co-expressing BACE1 (SEAP-NRG1-β1+BACE1), treated with DMSO or Galangin (10 μM). An increase in shedding of the SEAP-NRG1-b1 fusion protein was measured upon BACE1 co-expression. Shedding in co-expressing cells was not suppressed by Galangin. Error bars indicate SEM. (N.S., p>0.05; n=4, student t test).
A cDNA construct encoding a human placental secreted alkaline phosphatase (SEAP)-NRG1 (pAPtag5-NRG1-β1) fusion protein was transfected in HEK293 cells in a 6-well format with or without full-length wild-type BACE1 using Lipofectamine 2000 (Invitrogen) as described previously (Vassar et al. (1999) Science, 286: 735-741). After transfection the medium was replaced with DMEM containing 10% heat-inactivated Fetal Bovine Serum and incubated for 24 hr. SEAP activity was measured in the conditioned medium. […] The absorbance was read at 405 nm. […]

[4] = target: T2, BACE cleavage of the MBP-C125 APP substrate (Homo sapiens, UniProt P05067); experiment: ASBI assay a): BACE cleavage of MBP-C125 substrate (C99 by AlphaLISA); type: biochemical
T2 construct: purchased Sigma (methods); R&D (HTS description) B9059; 931-AS-050
T2 sequence (P05067 646-770 limits assumed): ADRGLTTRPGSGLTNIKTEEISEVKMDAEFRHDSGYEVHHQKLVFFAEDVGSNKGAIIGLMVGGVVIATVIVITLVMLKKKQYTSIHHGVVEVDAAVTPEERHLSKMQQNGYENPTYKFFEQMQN
Description: As illustrated in the Examples, in one embodiment, an MBP-C125 APP695 wt fusion protein can be used as one of the substrates. The second substrate can be the commercially available P5-P5′ fluorescence substrate. Each of these substrates is incubated with recombinant BACE (R&D (cat#931-AS-050) in, for example, a 96 well plate format. For the MBP-C125 substrate the C-99 product from the BACE cleavage can be measured using an AlphaLisa assay as a readout. For the P5-5′ substrate the […] upon BACE cleavage can be used as the readout. An ASBI would inhibit the BACE cleavage of the MBP-C125 substrate while not being inhibitory of the fluorescence substrate.
A protein construct of Maltose-Binding-Protein carrying the 125 C-terminal residues of APP (1 uL of 1 mM in water) was incubated with a flavonoid (100 uM) for 15 minutes. The mix was then submitted to cleavage by BACE (Sigma #B9059, 5 μl of 3 unit/ml in BACE buffer) for 30 minutes. After 0, 10, 20 and 30 minutes, 2 uL the reaction mixture were frozen and the different time points were quantified simultaneously for the amount of APP-C99 created. The quantification was done by using a Perkin Elmer ALPHALisa Amyloid Amyloid Beta kit (AL275C) modified by replacing the anti-Abeta acceptor beads (AL275AC) with anti-APP acceptor beads (AL275AC) and making the antibody mix with 2×ALPHALisa buffer. […]

[5] = tested on: β-CTF production in CHO cells stably over-expressing human APP; experiment: β-CTF western blot in CHO cells over-expressing human APP; type: cell-based, Chinese Hamster; conditions: 10 μM, 24 hr, western blot of cell lysates
Description: as §1
The Chinese Hamster Ovary (CHO) cell line over-expressing human AβPP (7 W) was kindly provided by Dr. Edward Koo. Plasmid constructs were transiently transfected into HEK293T or 7 W cells with Lipofectamine 2000 (Invitrogen). Western Blot analysis was performed as previously described (Swistowski et al. (2009) J. Neurosci., 29: 15703-15712). Briefly, 48 hr after transfection, cells were harvested and lysed in NP-40 Cell Lysis Buffer (50 mM TrisHCl, pH 8.0, 150 mM NaCl and 1% NP-40). Cell lysates were mixed with 1×LDS loading buffer (Invitrogen) and 50 mM DTT, and boiled at 100° C. for 10 min. […]

T1 sequence (P56817 46-501): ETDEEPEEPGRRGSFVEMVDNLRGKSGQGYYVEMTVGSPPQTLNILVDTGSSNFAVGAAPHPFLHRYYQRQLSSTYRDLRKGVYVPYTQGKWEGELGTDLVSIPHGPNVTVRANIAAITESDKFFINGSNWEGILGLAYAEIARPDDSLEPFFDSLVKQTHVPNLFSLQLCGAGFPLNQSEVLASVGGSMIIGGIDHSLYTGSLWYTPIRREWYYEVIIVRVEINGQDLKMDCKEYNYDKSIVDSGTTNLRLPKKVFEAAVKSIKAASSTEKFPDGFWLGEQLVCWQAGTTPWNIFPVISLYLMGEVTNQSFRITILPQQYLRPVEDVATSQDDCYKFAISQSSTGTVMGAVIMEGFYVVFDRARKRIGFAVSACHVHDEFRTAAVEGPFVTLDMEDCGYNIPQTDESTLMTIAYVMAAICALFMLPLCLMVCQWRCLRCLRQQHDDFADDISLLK

O=c1c(O)c(-c2ccccc2)oc2cc(O)cc(O)c12 [Galangin]
inhibition of BACE cleavage of the P5-P5′ substrate [1]: showing no inhibition of the P5-P5′ substrate | inhibitor of acetylcholine esterase (AChE) [2]: inhibitor of acetylcholine esterase (AChE) | BACE1-dependent shedding of SEAP-NRG1-β1 [3]: does not inhibit BACE1 cleavage of neuregulin1 | inhibition of BACE cleavage of the MBP-C125 substrate ([4]; HTS at 10 uM, flavonoid panel at 100 uM): inhibiting the cleavage of the MBP substrate by BACE | dose at which effective as an ASBI ([4]; in the ASBI assays): 50 µM | β-CTF production [5]: inhibits β-CTF production
